According to patent US20260265233A1, “BENZOTHIOPHENE DERIVATIVES AS RXFP1 AGONISTS” (BRISTOL-MYERS SQUIBB COMPANY, priority 2021, published 2026):

The compounds below were run against T1, human RXFP1 (Homo sapiens, UniProt Q9HBX9) (assay: hRXFP1 HEK293 cAMP assay (HTRF)). Conditions: HEK293 cells stably expressing human RXFP1; 30 min at rt; intracellular cAMP by HTRF.
T1 construct: expressed in transfected cells
T1 sequence (Q9HBX9 1-757): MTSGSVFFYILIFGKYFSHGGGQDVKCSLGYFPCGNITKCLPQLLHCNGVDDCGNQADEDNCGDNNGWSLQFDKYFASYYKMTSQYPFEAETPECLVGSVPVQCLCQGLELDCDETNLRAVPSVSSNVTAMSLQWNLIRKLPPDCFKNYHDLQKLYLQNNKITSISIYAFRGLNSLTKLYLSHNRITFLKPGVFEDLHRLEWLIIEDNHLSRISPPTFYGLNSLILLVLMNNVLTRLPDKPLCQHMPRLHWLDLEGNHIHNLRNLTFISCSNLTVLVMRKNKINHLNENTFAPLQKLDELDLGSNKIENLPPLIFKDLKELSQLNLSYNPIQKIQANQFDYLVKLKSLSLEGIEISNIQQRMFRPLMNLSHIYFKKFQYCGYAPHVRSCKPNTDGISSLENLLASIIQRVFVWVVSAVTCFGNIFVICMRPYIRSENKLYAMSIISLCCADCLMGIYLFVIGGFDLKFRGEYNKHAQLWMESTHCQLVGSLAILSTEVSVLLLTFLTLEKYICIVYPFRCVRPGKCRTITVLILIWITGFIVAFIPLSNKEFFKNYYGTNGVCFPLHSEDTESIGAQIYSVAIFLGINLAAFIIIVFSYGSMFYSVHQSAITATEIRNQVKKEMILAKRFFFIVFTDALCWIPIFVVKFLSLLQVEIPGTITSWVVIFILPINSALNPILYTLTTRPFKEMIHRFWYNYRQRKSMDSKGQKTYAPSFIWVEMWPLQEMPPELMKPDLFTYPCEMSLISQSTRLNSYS
Type: cell-based
Method in brief: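 HEK293 cells stably expressing human RXFP1 treated 30 min at rt with compound (0.010 nM to 50 μM, 2% DMSO) in HBSS/HEPES buffer with 0.5 mM IBMX. Intracellular cAMP measured by HTRF (665/590 nm ratio) against a cAMP standard curve; potency fitted by 4-parameter logistic.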

EC50 [nM]	Compound
71	COc1ccc(C2=NOC3CN(CC(C)(C)O)CC23)cc1C(=O)Nc1c(C(=O)Nc2ccc(F)c(C(F)(F)F)c2)sc2cc(C(F)(F)F)ccc12 (single isomer, unassigned) [Example 53, N-(4-fluoro-3-(trifluoromethyl)phenyl)-3-(5-(5-(2-hydroxy-2-methylpropyl)-3a, 5,6,6a-tetrahydro-4H-pyrrolo[3,4-d]isoxazol-3-yl)-2-methoxybenzamido)-6-(trifluoromethyl)benzo[b]thiophene-2-carboxamide]
608	COc1ccc(C2CCCN(CC(N)=O)C2)cc1C(=O)Nc1c(C(=O)Nc2ccc(F)c(C(F)(F)F)c2)sc2cc(C(F)(F)F)ccc12 (stereo not shown) [Example 83, 3-(5-(1-(2-amino-2-oxoethyl)piperidin-3-yl)-2-methoxy-benzamido)-N-(4-fluoro-3-(trifluoromethyl)phenyl)-6-(trifluoromethyl) benzo[b] thiophene-2-carboxamide]
1430	COc1ccc(C2CCN(CC(N)=O)C2)cc1C(=O)Nc1c(C(=O)Nc2ccc(F)c(C(F)(F)F)c2)sc2cc(C(F)(F)F)ccc12 (stereo not shown) [Example 147, 3-(5-(1-(2-amino-2-oxoethyl)pyrrolidin-3-yl)-2-methoxy-benzamido)-N-(4-fluoro-3-(trifluoromethyl)phenyl)-6-(trifluoromethyl) benzo[b] thiophene-2-carboxamide]
2770	COc1ccc(C2CCC(NCC(=O)O)CC2)cc1C(=O)Nc1c(C(=O)Nc2ccc(F)c(C(F)(F)F)c2)sc2cc(C(F)(F)F)ccc12 (single isomer, unassigned) [Example 211, (4-(3-((2-((4-fluoro-3-(trifluoromethyl)phenyl)carbamoyl)-6-(trifluoromethyl)benzo[b]thiophen-3-yl)carbamoyl)-4-methoxyphenyl)cyclohexyl) glycine]
4310	COc1ccc(C2CCCN(CCO)CC2)cc1C(=O)Nc1c(C(=O)Nc2ccc(F)c(C(F)(F)F)c2)sc2cc(C(F)(F)F)ccc12 (single isomer, unassigned) [Example 72, N-(4-fluoro-3-(trifluoromethyl)phenyl)-3-(5-(1-(2-hydroxyethyl)azepan-4-yl)-2-methoxy-benzamido)-6-(trifluoromethyl) benzo[b] thiophene-2-carboxamide]
978	COc1ccc(C2CCCN(CC(=O)N(C)C)C2)cc1C(=O)Nc1c(C(=O)Nc2ccc(F)c(C(F)(F)F)c2)sc2cc(C(F)(F)F)ccc12 (single isomer, unassigned) [Example 82, 3-(5-(1-(2-(dimethylamino)-2-oxoethyl)piperidin-3-yl)-2-methoxy-benzamido)-N-(4-fluoro-3-(trifluoromethyl)phenyl)-6-(trifluoromethyl) benzo[b] thiophene-2-carboxamide]
28.3	COc1ccc(-c2cc(S(=O)(=O)NC(C)(C)C)ccc2F)cc1C(=O)Nc1c(C(=O)Nc2ccc(F)c(C(F)(F)F)c2)sc2cc(C(F)(F)F)ccc12 [Example 111, 3-(5′-(N-(tert-butyl)sulfamoyl)-2′-fluoro-4-methoxy-[1,1′-biphenyl]-3-carboxamido)-N-(4-fluoro-3-(trifluoromethyl)phenyl)-6-(trifluoromethyl) benzo[b] thiophene-2-carboxamide]

More lines, now with the values behind:

Compound	EC50 [nM]
COc1ccc(C2=NOC(C)(CO)C2)cc1C(=O)Nc1c(C(=O)Nc2ccc(F)c(C(F)(F)F)c2)sc2cc(C(F)(F)F)ccc12 (single isomer, unassigned) [Example 254, N-(4-fluoro-3-(trifluoromethyl)phenyl)-3-(5-(5-(hydroxymethyl)-5-methyl-4,5-dihydroisoxazol-3-yl)-2-methoxy-benzamido)-6-(trifluoromethyl) benzo[b] thiophene-2-carboxamide]	1020
COc1ccc(C2=NOC(CO)C2)cc1C(=O)Nc1c(C(=O)Nc2ccc(F)c(C(F)(F)F)c2)sc2cc(C(F)(F)F)ccc12 (single isomer, unassigned) [Example 249, N-(4-fluoro-3-(trifluoromethyl)phenyl)-3-(5-(5-(hydroxymethyl)-4,5-dihydroisoxazol-3-yl)-2-methoxy-benzamido)-6-(trifluoromethyl) benzo[b] thiophene-2-carboxamide]	3700
COc1cc(F)c(C(=O)NCC2(S(C)(=O)=O)CC2)cc1C(=O)Nc1c(C(=O)Nc2ccc(F)c(C(F)(F)F)c2)sc2cc(C(F)(F)F)ccc12 [Example 186, 4-fluoro-N1-(2-((4-fluoro-3-(trifluoromethyl)phenyl)carbamoyl)-6-(trifluoromethyl)benzo[b]thiophen-3-yl)-6-methoxy-N3-((1-(methylsulfonyl)cyclopropyl)methyl) isophthalamide]	102
COc1ccc(C2CCCN(C(=O)CN)C2)cc1C(=O)Nc1c(C(=O)Nc2ccc(F)c(C(F)(F)F)c2)sc2cc(C(F)(F)F)ccc12 (stereo not shown) [Example 96, N-(4-fluoro-3-(trifluoromethyl)phenyl)-3-(5-(1-glycylpiperidin-3-yl)-2-methoxy-benzamido)-6-(trifluoromethyl) benzo[b] thiophene-2-carboxamide]	324
COc1ccc(N2CCOC(CC(C)(C)O)C2)cc1C(=O)Nc1c(C(=O)Nc2ccc(F)c(C(F)(F)F)c2)sc2cc(C(F)(F)F)ccc12 (single isomer, unassigned) [Example 228, N-(4-fluoro-3-(trifluoromethyl)phenyl)-3-(5-(2-(2-hydroxy-2-methylpropyl)morpholino)-2-methoxy-benzamido)-6-(trifluoromethyl) benzo[b] thiophene-2-carboxamide]	1540
COc1ccc(-c2cc([C@H](OC(=O)NC3CCC3)C(F)(F)F)ccc2F)cc1C(=O)Nc1c(C(=O)Nc2ccc(F)c(C(F)(F)F)c2)sc2cc(C(F)(F)F)ccc12 [Example 22, (S)-2,2,2-trifluoro-1-(6-fluoro-3′-((2-((4-fluoro-3-(trifluoromethyl)phenyl)carbamoyl)-6-(trifluoromethyl)benzo[b]thiophen-3-yl)carbamoyl)-4′-methoxy-[1, 1′-biphenyl]-3-yl) ethyl cyclobutylcarbamate]	0.5
COc1ccc(C2=NOC3(CCOC3=O)C2)cc1C(=O)Nc1c(C(=O)Nc2ccc(F)c(C(F)(F)F)c2)sc2cc(C(F)(F)F)ccc12 (stereo not shown) [Example 251, N-(4-fluoro-3-(trifluoromethyl)phenyl)-3-(2-methoxy-5-(6-oxo-1,7-dioxa-2-azaspiro[4.4]non-2-en-3-yl)benzamido)-6-(trifluoromethyl) benzo[b] thiophene-2-carboxamide]	222
COc1ccc(N2CCCC(C(=O)NC3COC3)C2)cc1C(=O)Nc1c(C(=O)Nc2ccc(F)c(C(F)(F)F)c2)sc2cc(C(F)(F)F)ccc12 (single isomer, unassigned) [Example 229, 1-(3-((2-((4-fluoro-3-(trifluoromethyl)phenyl)carbamoyl)-6-(trifluoromethyl)benzo [b]thiophen-3-yl)carbamoyl)-4-methoxyphenyl)-N-(oxetan-3-yl)piperidine-3-carboxamide]	2570
COc1ccc(C2=NOC3CN(C(=O)CO)CC23)cc1C(=O)Nc1c(C(=O)Nc2ccc(F)c(C(F)(F)F)c2)sc2ccccc12 (single isomer, unassigned) [Example 248, N-[4-fluoro-3-(trifluoromethyl)phenyl]-3-{5-[5-(2-hydroxyacetyl) 3aH,4H,5H,6H, 6aH-pyrrolo[3,4-d][1,2]oxazol-3-yl]-2-methoxy-benzamido}-1-benzothiophene-2-carboxamide]	545
COc1ccc(C2CCCN(CC(O)CO)C2)cc1C(=O)Nc1c(C(=O)Nc2ccc(F)c(C(F)(F)F)c2)sc2cc(C(F)(F)F)ccc12 (stereo not shown) [Example 102, 3-(5-(1-(2,3-dihydroxypropyl)piperidin-3-yl)-2-methoxy-benzamido)-N-(4-fluoro-3-(trifluoromethyl)phenyl)-6-(trifluoromethyl) benzo[b] thiophene-2-carboxamide]	2230
COc1ccc(-c2nc(N3CCOCC3)no2)cc1C(=O)Nc1c(C(=O)Nc2ccc(F)c(C(F)(F)F)c2)sc2cc(C(F)(F)F)ccc12 [Example 277, N-[4-fluoro-3-(trifluoromethyl)phenyl]-3-{2-methoxy-5-[3-(morpholin-4-yl)-1,2,4-oxadiazol-5-yl]benzamido}-6-(trifluoromethyl)-1-benzothiophene-2-carboxamide]	398
COc1ccc(C2CCN(CCS(C)(=O)=O)C2)cc1C(=O)Nc1c(C(=O)Nc2ccc(F)c(C(F)(F)F)c2)sc2cc(C(F)(F)F)ccc12 (single isomer, unassigned) [Example 149, N-(4-fluoro-3-(trifluoromethyl)phenyl)-3-(2-methoxy-5-(1-(2-(methylsulfonyl)ethyl)pyrrolidin-3-yl)benzamido)-6-(trifluoromethyl) benzo[b] thiophene-2-carboxamide]	1200
